According to US6933289B2, “Inhibition of irritating side effects associated with use of a topical ophthalmic medication” (Allergan, Inc., priority 2003, dated 2005):

Columns and labels:
[1] = Phase-solubility analysis: association constant between bimatoprost and cyclodextrin or cyclodextrin derivative; type: physicochemical; conditions: 1:1 complex with bimatoprost, stirred one week at room temperature
Method: CD represents the associated complex of the two. […] CD], according to equation 2. [formula]
The association constant between the bimatoprost and four cyclodextrin or cyclodextrin derivatives was determined by running phase-solubility analysis. A series of small glass bottles was set up, each fitted with a screw cap and a magnetic stir bar with increasing concentrations of cyclodextrin or cyclodextrin derivative dissolved in a fixed volume (e.g., 10 mL) of aqueous vehicle (e.g., the formulation minus the drug and the cyclodextrin or cyclodextrin derivative). […] Bottles were then capped and the suspensions were stirred for a week at room temperature to ensure equilibrium. Undissolved drug was removed by centrifugation, followed by filtration through a 0.45 μm filter membrane to obtain a clear solution, free of drug in suspension. The concentration of the solubilized drug in each filtrate sample was determined and drug solubility (y-axis) was plotted against the concentration of the cyclodextrin or cyclodextrin derivative (x-axis). […] In principle, S0 is equivalent to the y intercept (b) of the fitted line, however, in most cases it can more accurately be determined by direct measurement of the solubility rather than indirectly from the fit of data.

[2] = 0.02% bimatoprost, cited from earlier work

Association Constant (molar association constant for bimatoprost) [1]	Compound	Hyperemia ([2]; no cyclodextrin)	Efficacy [2]
≈1913 M^−1	2-Hydroxypropyl β-cyclodextrin		
	CCNC(=O)CCC/C=C\C[C@@H]1[C@@H](/C=C/[C@@H](O)CCc2ccccc2)[C@H](O)C[C@@H]1O [bimatoprost]	little hyperemia	loses efficacy
≈439 M^−1	OC[C@H]1O[C@@H]2O[C@H]3[C@H](O)[C@@H](O)[C@@H](O[C@H]4[C@H](O)[C@@H](O)[C@@H](O[C@H]5[C@H](O)[C@@H](O)[C@@H](O[C@H]6[C@H](O)[C@@H](O)[C@@H](O[C@H]7[C@H](O)[C@@H](O)[C@@H](O[C@H]8[C@H](O)[C@@H](O)[C@@H](O[C@H]9[C@H](O)[C@@H](O)[C@@H](O[C@H]1[C@H](O)[C@H]2O)O[C@@H]9CO)O[C@@H]8CO)O[C@@H]7CO)O[C@@H]6CO)O[C@@H]5CO)O[C@@H]4CO)O[C@@H]3CO [γ-cyclodextrin]		
≈1464 M^−1	Sulfobutyl ether β-cyclodextrin		
